Tested on: 439559-082-T-J2-PDC complex spheroid growth
Test: Anticancer human tumor 439559-082-T-J2-PDC patient-derived colon adenocarcinoma cell line growth inhibition [Asc]
Settings: for IC50: curve of first compound; for viability, T/C: stronger effect = lower value
In short: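 Concentration series start at each agent's clinical Cmax, or at 10 microM when none is established, and drop in half-log steps; agents are applied alone or together to complex spheroids built with HUVEC and hMSC.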
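Also: spheroids exposed to agents for 7 days starting day 3 after seeding.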
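For viability, T/C in this document: percent of DMSO vehicle control viability with 100% = vehicle.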

NC(=O)C(=Cn1cnc(-c2cc(C(F)(F)F)cc(C(F)(F)F)c2)n1)c1cncnc1 + CNC(C)C(=O)NC1CN(S(=O)(=O)c2cccc(S(=O)(=O)N3CCC4CCC(C(=O)NC(c5ccccc5)c5ccccc5)N4C(=O)C(NC(=O)C(C)NC)C3)c2)CCC2CCC(C(=O)NC(c3ccccc3)c3ccccc3)N2C1=O
IC50 (second compound 0.00316 µM): > 300 nM | IC50 (second compound 0.01 µM): > 300 nM | IC50 (second compound 0.0316 µM): > 300 nM | IC50 (second compound 0.1 µM): > 300 nM | IC50 (second compound 0.316 µM): > 300 nM | IC50 (second compound 1 µM): > 300 nM | viability, T/C (second compound 0.00316 µM, first compound 0.000949 µM): 105% | viability, T/C (second compound 0.00316 µM, first compound 0.003 µM): 101% | viability, T/C (second compound 0.00316 µM, first compound 0.00949 µM): 102% | viability, T/C (second compound 0.00316 µM, first compound 0.03 µM): 97% | viability, T/C (second compound 0.00316 µM, first compound 0.0949 µM): 98.2% | viability, T/C (second compound 0.00316 µM, first compound 0.3 µM): 79.4% | viability, T/C (second compound 0.01 µM, first compound 0.000949 µM): 101% | viability, T/C (second compound 0.01 µM, first compound 0.003 µM): 92.3% | viability, T/C (second compound 0.01 µM, first compound 0.00949 µM): 94.1% | viability, T/C (second compound 0.01 µM, first compound 0.03 µM): 98.7% | viability, T/C (second compound 0.01 µM, first compound 0.0949 µM): 102% | viability, T/C (second compound 0.01 µM, first compound 0.3 µM): 92.4% | viability, T/C (second compound 0.0316 µM, first compound 0.000949 µM): 94.1% | viability, T/C (second compound 0.0316 µM, first compound 0.003 µM): 87.3% | viability, T/C (second compound 0.0316 µM, first compound 0.00949 µM): 100% | viability, T/C (second compound 0.0316 µM, first compound 0.03 µM): 99.7% | viability, T/C (second compound 0.0316 µM, first compound 0.0949 µM): 108% | viability, T/C (second compound 0.0316 µM, first compound 0.3 µM): 84.8% | viability, T/C (second compound 0.1 µM, first compound 0.000949 µM): 96.3% | viability, T/C (second compound 0.1 µM, first compound 0.003 µM): 103% | viability, T/C (second compound 0.1 µM, first compound 0.00949 µM): 94.9% | viability, T/C (second compound 0.1 µM, first compound 0.03 µM): 99.3% | viability, T/C (second compound 0.1 µM, first compound 0.0949 µM): 101% | viability, T/C (second compound 0.1 µM, first compound 0.3 µM): 87.2% | viability, T/C (second compound 0.316 µM, first compound 0.000949 µM): 100% | viability, T/C (second compound 0.316 µM, first compound 0.003 µM): 99.2% | viability, T/C (second compound 0.316 µM, first compound 0.00949 µM): 87.2% | viability, T/C (second compound 0.316 µM, first compound 0.03 µM): 86.2% | viability, T/C (second compound 0.316 µM, first compound 0.0949 µM): 97% | viability, T/C (second compound 0.316 µM, first compound 0.3 µM): 82.8% | viability, T/C (second compound 1 µM, first compound 0.000949 µM): 79.1% | viability, T/C (second compound 1 µM, first compound 0.003 µM): 80% | viability, T/C (second compound 1 µM, first compound 0.00949 µM): 86.8% | viability, T/C (second compound 1 µM, first compound 0.03 µM): 71.4% | viability, T/C (second compound 1 µM, first compound 0.0949 µM): 88.7% | viability, T/C (second compound 1 µM, first compound 0.3 µM): 74.2%

NC1CCC(NC2CC2c2ccccc2)CC1 (centres undefined) + CNC(C)C(=O)NC1CN(S(=O)(=O)c2cccc(S(=O)(=O)N3CCC4CCC(C(=O)NC(c5ccccc5)c5ccccc5)N4C(=O)C(NC(=O)C(C)NC)C3)c2)CCC2CCC(C(=O)NC(c3ccccc3)c3ccccc3)N2C1=O
IC50 (second compound 0.00316 µM): > 100 nM | IC50 (second compound 0.01 µM): > 100 nM | IC50 (second compound 0.0316 µM): > 100 nM | IC50 (second compound 0.1 µM): > 100 nM | IC50 (second compound 0.316 µM): > 100 nM | IC50 (second compound 1 µM): > 100 nM | viability, T/C (second compound 0.00316 µM, first compound 0.000316 µM): 104% | viability, T/C (second compound 0.00316 µM, first compound 0.001 µM): 100% | viability, T/C (second compound 0.00316 µM, first compound 0.00316 µM): 110% | viability, T/C (second compound 0.00316 µM, first compound 0.01 µM): 95.7% | viability, T/C (second compound 0.00316 µM, first compound 0.0316 µM): 98.4% | viability, T/C (second compound 0.00316 µM, first compound 0.1 µM): 98.2% | viability, T/C (second compound 0.01 µM, first compound 0.000316 µM): 102% | viability, T/C (second compound 0.01 µM, first compound 0.001 µM): 95% | viability, T/C (second compound 0.01 µM, first compound 0.00316 µM): 109% | viability, T/C (second compound 0.01 µM, first compound 0.01 µM): 111% | viability, T/C (second compound 0.01 µM, first compound 0.0316 µM): 99.5% | viability, T/C (second compound 0.01 µM, first compound 0.1 µM): 107% | viability, T/C (second compound 0.0316 µM, first compound 0.000316 µM): 107% | viability, T/C (second compound 0.0316 µM, first compound 0.001 µM): 91.3% | viability, T/C (second compound 0.0316 µM, first compound 0.00316 µM): 101% | viability, T/C (second compound 0.0316 µM, first compound 0.01 µM): 109% | viability, T/C (second compound 0.0316 µM, first compound 0.0316 µM): 104% | viability, T/C (second compound 0.0316 µM, first compound 0.1 µM): 107% | viability, T/C (second compound 0.1 µM, first compound 0.000316 µM): 105% | viability, T/C (second compound 0.1 µM, first compound 0.001 µM): 101% | viability, T/C (second compound 0.1 µM, first compound 0.00316 µM): 98.1% | viability, T/C (second compound 0.1 µM, first compound 0.01 µM): 104% | viability, T/C (second compound 0.1 µM, first compound 0.0316 µM): 96.4% | viability, T/C (second compound 0.1 µM, first compound 0.1 µM): 98% | viability, T/C (second compound 0.316 µM, first compound 0.000316 µM): 95.9% | viability, T/C (second compound 0.316 µM, first compound 0.001 µM): 101% | viability, T/C (second compound 0.316 µM, first compound 0.00316 µM): 93.6% | viability, T/C (second compound 0.316 µM, first compound 0.01 µM): 100% | viability, T/C (second compound 0.316 µM, first compound 0.0316 µM): 101% | viability, T/C (second compound 0.316 µM, first compound 0.1 µM): 97% | viability, T/C (second compound 1 µM, first compound 0.000316 µM): 85.5% | viability, T/C (second compound 1 µM, first compound 0.001 µM): 85.9% | viability, T/C (second compound 1 µM, first compound 0.00316 µM): 87.4% | viability, T/C (second compound 1 µM, first compound 0.01 µM): 84.5% | viability, T/C (second compound 1 µM, first compound 0.0316 µM): 86.3% | viability, T/C (second compound 1 µM, first compound 0.1 µM): 77.3%

From PubChem BioAssay AID1963423 (Molecular Pharmacology Branch, DTP, NCI, 2024)
